Laboratory results published in patent US8183251B2, “Hydantoin compounds and pharmaceutical compositions thereof” (AstraZeneca AB, priority 2006, dated 2012).
pIC50: −log10 of the molar value. Structures can show the parent of a compound that is named as a salt.

Experiments:
Format in all cases: biochemical
[1] = biological target: T1, human MMP14 catalytic domain (Homo sapiens, UniProt P50281); assay: Isolated enzyme assay MMP14 (fluorogenic substrate); details: IC50 (MMP14) divided by IC50 (MMP12)
T1 construct: Recombinant human MMP14 catalytic domain; made in house
Procedure: Recombinant human MMP14 catalytic domain may be expressed and purified as described by Parkar A. A. et al, (2000), Protein Expression and Purification, 20, 152. The purified enzyme can be used to monitor inhibitors of activity as follows: MMP14 (10 ng/ml final concentration) is incubated for 60 minutes at room temperature with the synthetic substrate Mca-Pro-Cha-Gly-Nva-His-Ala-Dpa-NH2 (10 μM) in assay buffer (0.1M “Tris-HCl” (trade mark) buffer, pH 7.5 containing 0.1M NaCl, 20 mM CaCl2, 0.020 mM ZnCl and 0.05% (w/v) “Brij 35” (trade mark) detergent) in the presence (5 concentrations) or absence of inhibitors. Activity is determined by measuring the fluorescence at λex 320 nm and λem 405 nm. Percent inhibition is calculated as follows: % Inhibition is equal to the [Fluorescenceplus inhibitor−Fluorescencebackground] divided by the [Fluorescenceminus inhibitor−Fluorescencebackground].

[2] = biological target: T2, human MMP12 catalytic domain (Homo sapiens, UniProt P39900); assay: Isolated enzyme assay MMP12 (fluorogenic substrate); details: recombinant human MMP12 catalytic domain, 60 minutes at room temperature; read-out: hMMP12 IC50
T2 construct: Recombinant human MMP12 catalytic domain; made in house
T2 sequence (P39900 106-263 limits assumed): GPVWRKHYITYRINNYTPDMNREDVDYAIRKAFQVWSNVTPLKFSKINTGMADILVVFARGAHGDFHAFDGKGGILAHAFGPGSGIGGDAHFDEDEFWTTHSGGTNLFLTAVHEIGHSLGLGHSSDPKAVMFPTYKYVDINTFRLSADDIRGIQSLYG
Procedure: Recombinant human MMP12 catalytic domain may be expressed and purified as described by Parkar A. A. et al, (2000), Protein Expression and Purification, 20, 152. The purified enzyme can be used to monitor inhibitors of activity as follows: MMP12 (50 ng/ml final concentration) is incubated for 60 minutes at room temperature with the synthetic substrate Mca-Pro-Cha-Gly-Nva-His-Ala-Dpa-NH2 (10 μM) in assay buffer (0.1M “Tris-HCl” (trade mark) buffer, pH 7.3 containing 0.1M NaCl, 20 mM CaCl2, 0.020 mM ZnCl and 0.05% (w/v) “Brij 35” (trade mark) detergent) in the presence (10 concentrations) or absence of inhibitors. Activity is determined by measuring the fluorescence at λex 320 nm and λem 405 nm. Percent inhibition is calculated as follows: % Inhibition is equal to the [Fluorescenceplus inhibitor−Fluorescencebackground] divided by the [Fluorescenceminus inhibitor−Fluorescencebackground].

hMMP8 = biological target: T3, hMMP8 (Homo sapiens, UniProt P22894); assay: Isolated enzyme assay MMP8 (fluorogenic substrate); details: IC50 (MMP8) divided by IC50 (MMP12)
T3 construct: purchased Calbiochem
T3 sequence (P22894 101-467): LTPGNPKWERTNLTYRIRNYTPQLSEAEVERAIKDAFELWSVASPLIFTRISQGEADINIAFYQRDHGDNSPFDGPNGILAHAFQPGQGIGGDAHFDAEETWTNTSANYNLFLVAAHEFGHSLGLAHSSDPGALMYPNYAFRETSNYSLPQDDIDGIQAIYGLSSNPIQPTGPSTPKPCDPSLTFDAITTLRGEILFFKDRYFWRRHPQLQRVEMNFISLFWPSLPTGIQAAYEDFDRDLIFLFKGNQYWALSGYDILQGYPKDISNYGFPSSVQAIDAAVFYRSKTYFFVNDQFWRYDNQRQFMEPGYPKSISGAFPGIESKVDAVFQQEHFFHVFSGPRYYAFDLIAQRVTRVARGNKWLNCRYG
Procedure: Purified pro-MMP8 is purchased from Calbiochem. The enzyme (at 10 μg/ml) is activated by p-amino-phenyl-mercuric acetate (APMA) at 1 mM for 2.5 h, 35° C. The activated enzyme can be used to monitor inhibitors of activity as follows: MMP8 (200 ng/ml final concentration) is incubated for 90 minutes at 35° C. (80% H2O) with the synthetic substrate Mca-Pro-Cha-Gly-Nva-His-Ala-Dpa-NH2 (12.5 μM) in assay buffer (0.1M “Tris-HCl” (trade mark) buffer, pH 7.5 containing 0.1M NaCl, 30 mM CaCl2, 0.040 mM ZnCl and 0.05% (w/v) “Brij 35” (trade mark) detergent) in the presence (10 concentrations) or absence of inhibitors. Activity is determined by measuring the fluorescence at λex 320 nm and λem 405 nm. Percent inhibition is calculated as follows: % Inhibition is equal to the [Fluorescenceplus inhibitor−Fluorescencebackground] divided by the [Fluorescenceminus inhibitor−Fluorescencebackground].

[3] = tested on: human MMP9 catalytic domain; assay: Isolated enzyme assay MMP9 (fluorogenic substrate); details: IC50 (MMP9) divided by IC50 (MMP12)
Procedure: Recombinant human MMP9 catalytic domain was expressed and then purified by Zn chelate column chromatography followed by hydroxamate affinity column chromatography. The enzyme can be used to monitor inhibitors of activity as follows: MMP9 (5 ng/ml final concentration) is incubated for 30 minutes at RT with the synthetic substrate Mca-Pro-Cha-Gly-Nva-His-Ala-Dpa-NH2 (5 μM) in assay buffer (0.1M “Tris-HCl” (trade mark) buffer, pH 7.3 containing 0.1M NaCl, 20 mM CaCl2, 0.020 mM ZnCl and 0.05% (w/v) “Brij 35” (trade mark) detergent) in the presence (10 concentrations) or absence of inhibitors. Activity is determined by measuring the fluorescence at λex 320 nm and λem 405 nm. Percent inhibition is calculated as follows: […]
% Inhibition is equal to the [Fluorescenceplus inhibitor−Fluorescencebackground] divided by the [Fluorescenceminus inhibitor−Fluorescencebackground].
A protocol for testing against other matrix metalloproteinases, including MMP9, using expressed and purified pro MMP is described, for instance, by C. Graham Knight et al., (1992) FEBS Lett., 296 (3), 263-266.

[4] = biological target: T4, human MMP19 catalytic domain (Homo sapiens, UniProt Q99542); assay: Isolated enzyme assay MMP19 (fluorogenic substrate); details: IC50 (MMP19) divided by IC50 (MMP12)
T4 construct: Recombinant human MMP19 catalytic domain; made in house
T4 sequence (Q99542 98-256 limits assumed): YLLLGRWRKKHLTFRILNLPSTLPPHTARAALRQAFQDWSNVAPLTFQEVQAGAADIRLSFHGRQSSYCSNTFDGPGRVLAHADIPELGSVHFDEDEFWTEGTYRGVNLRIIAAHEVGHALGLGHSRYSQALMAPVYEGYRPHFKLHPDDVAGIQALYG
Procedure: Recombinant human MMP19 catalytic domain may be expressed and purified as described by Parkar A. A. et al, (2000), Protein Expression and Purification, 20:152. The purified enzyme can be used to monitor inhibitors of activity as follows: MMP19 (40 ng/ml final concentration) is incubated for 120 minutes at 35° C. with the synthetic substrate Mca-Pro-Leu-Ala-Nva-Dpa-Ala-Arg-NH2 (5 μM) in assay buffer (0.1M “Tris-HCl” (trade mark) buffer, pH 7.3 containing 0.1M NaCl, 20 mM CaCl2, 0.020 mM ZnCl and 0.05% (w/v) “Brij 35” (trade mark) detergent) in the presence (5 concentrations) or absence of inhibitors. Activity is determined by measuring the fluorescence at λex 320 nm and λem 405 nm. Percent inhibition is calculated as follows: % Inhibition is equal to the [Fluorescenceplus inhibitor−Fluorescencebackground] divided by the [Fluorescenceminus inhibitor−Fluorescencebackground].

SMILES	Selectivity for inhibition of hMMP12 over: hMMP14 [1]	pIC50 [2]	Selectivity for inhibition of hMMP12 over: hMMP8 (hMMP8)	Selectivity for inhibition of hMMP12 over: hMMP9 [3]	Selectivity for inhibition of hMMP12 over: hMMP19 [4]
CN(Cc1ccc(Oc2cnc(C(F)(F)F)nc2)cc1)S(=O)(=O)C[C@@]1(C2CC2)NC(=O)NC1=O [Example 4, 1-[(4S)-4-Cyclopropyl-2,5-dioxoimidazolidin-4-yl]-N-methyl-N-[(4-{[2-(trifluoromethyl)pyrimidin-5-yl]oxy}phenyl)methyl]methanesulfonamide]	>3560	8.08	>1168	>795	>2882
CN(Cc1ccc(Oc2cncnc2)cc1)S(=O)(=O)C[C@@]1(C2CC2)NC(=O)NC1=O [Example 1, 1-[(4S)-4-Cyclopropyl-2,5-dioxoimidazolidin-4-yl]-N-methyl-N-{[4-(pyrimidin-5-yloxy)phenyl]methyl}methanesulfonamide trifluoroacetic acid salt]	>525	7.72	320	>525	>525
CCc1ncc(Oc2ccc(CN(C)S(=O)(=O)C[C@@]3(C4CC4)NC(=O)NC3=O)cc2)cn1 [Example 5, 1-[(4S)-4-Cyclopropyl-2,5-dioxoimidazolidin-4-yl]-N-({4-[(2-ethylpyrimidin-5-yl)oxy]phenyl}methyl)-N-methylmethanesulfonamide]	>588	7.77	417	523	>588
CN(Cc1ccc(Oc2cnc(C3CC3)nc2)cc1)S(=O)(=O)C[C@@]1(C2CC2)NC(=O)NC1=O [Example 2, 1-[(4S)-4-Cyclopropyl-2,5-dioxoimidazolidin-4-yl]-N-({4-[(2-cyclopropylpyrimidin-5-yl)oxy]phenyl}methyl)-N-methylmethanesulfonamide]	>2320	8.37	2120	1440	>2320
C[C@]1(CS(=O)(=O)NCc2ccc(Oc3ccccc3)cc2)NC(=O)NC1=O [reference compound]	>330	6.82	202	261	>330
Cc1ncc(Oc2ccc(CN(C)S(=O)(=O)C[C@@]3(C4CC4)NC(=O)NC3=O)cc2)cn1 [Example 3, 1-[(4S)-4-Cyclopropyl-2,5-dioxoimidazolidin-4-yl]-N-methyl-N-({4-[(2-methylpyrimidin-5-yl)oxy]phenyl}methyl)methanesulfonamide]	>7142	7.85	>628	857	>2800
O=C1NC(=O)[C@](CS(=O)(=O)NCc2ccc(Oc3cnc(C(F)(F)F)nc3)cc2)(C2CC2)N1 [Example 6, 1-[(4S)-4-Cyclopropyl-2,5-dioxoimidazolidin-4-yl]-N-[(4-{[2-(trifluoromethyl)pyrimidin-5-yl]oxy}benzyl)]methane sulfonamide]		7.20	657	1530	
